Legend:
paw of the rats = assay: Rat paw edema; type: in vivo, Sprague Dawley rats; conditions: for degree of edema in words: 2 hours after administration, rat paw; for degree of edema, 1 hour after administration / degree of edema, 2 hours after administration / degree of edema, Immediately after administration: 0.1 ml into rat paw
Protocol: (§1) To evaluate the degree of edema, each test compositions described above were injected into the paw of the rats. Specifically, male Sprague Dawley rats (6 weeks old) were purchased and used after one week of adaptation. The rats (body weight: 170˜200 g) were randomly selected and the thickness of the rat paw were measured with a caliper before the administration of the test compositions. In order to observe the edema, 0.1 ml of PBS and the various test compositions were administered to the paws of the rats. Measurements of the […] were performed by a caliper immediately before the injection, immediately after the injection, and 1 or 2 hours after the injection. In addition, when the thickness was measured, the skin lesion of the injection site was observed by photographing the sole of the paw (using a 4×4 cm scale).
The degree of edema was evaluated as 0 to 4 grades.

[1] = Formulation stability of PPC injectable preparations: property, transparency, particle size, pH; conditions: for bile acid/PPC molar ratio below which a substantially stable formulation did not occur: PPC 5.0%; for bile acid concentration at which stable injectable preparations can be made: based on PPC 5.0%
Protocol: The particle size was measured using a nano particle size analyzer (Microtrac Wave, MICROTRACT, USA). […] The transparency was measured using a spectrophotometer (CM-3600d, KONICA MINOLTA, JAPAN). The pH was measured with a pH meter (ST3100, OHAUS, GERMANY), and the isotonicity was measured with an osmotic pressure meter (Vapro 5600, Elitech Group, Tokyo, Japan), and viscosity was analyzed using a viscometer (Digital Viscometer CL-2, CAS, Korea).
The washed and sterilized preparation tank was charged with the water for injection (at room temperature), and phosphatidylcholine (PPC) and benzyl alcohol were added thereto, and the mixture was stirred at 200 RPM for 2 hours under the condition of nitrogen pressure, shading and room temperature. After the completion of stirring, the mixture was transferred to an ultra-high pressure homogenizer (Nano Disperser NLM100, Ilshin Autoclave, Korea) with a nitrogen pressure. Ultra-high pressure homogenization (dispersion) was carried out at 12,000 psi for 7 cycles, and the particles were finely pulverized. Then, the pH was adjusted. After filtration through a 0.2 μm filter, the vial was filled and sealed.
Specifically, the water for injection was put into the preparation tank which was cleaned and sterilized (room temperature), and sodium hydroxide was added to the water for injection. Then deoxycholic acid and benzyl alcohol were added, stirred and dissolved. Then, phosphatidylcholine was added thereto, and the mixture was stirred at 200 RPM for about 24 hours under shading, sealing, room temperature (25° C.), and nitrogen pressure. After completion of the stirring, the pH was adjusted (if necessary, with additional sodium hydroxide or hydrochloric acid), and it was filtered through a 0.2 μm filter, and filled into the vial and sealed.
Then glycocholic acid and benzyl alcohol were added, stirred and dissolved. Then, phosphatidylcholine was added thereto, and the mixture was stirred at 200 RPM for about 24 hours under shading, sealing, room temperature (25° C.), and nitrogen pressure. After completion of the stirring, the pH was adjusted (if necessary, with additional sodium hydroxide or 0.001-0.6% of hydrochloric acid), and it was filtered through a 0.2 μm filter, and filled into the vial and sealed.
The formulation stability of the PPC injectable compositions solubilized with glycocholic acid (GCA) in Tables 3 and 4 was evaluated immediately after the preparation and 30 days after the preparation (refrigerated storage).

3T3-L1 adipocytes = assay: Adipocyte (3T3-L1) reducing effect, MTT assay; type: cell-based; conditions: 24 to 96 hours, various concentrations
Protocol: Tests were performed to compare the adipocyte reducing activity of the PPC single composition and the PPC composition solubilized with bile acids. Differentiated 3T3L-1 adipocyte lines were used to observe adipocyte reduction activity, and cell viability was monitored by MTT assay. […] Materials and methods employed in the following experiments are described below. In the following, % of the composition refers to % (w/v).
The specific test methods are as follows. […] The cells were washed twice with PBS, treated with MTT reagent (50 μl) and left at 37° C. for 2 hours. After removing the supernatant, MTT formazan crystals were dissolved in DMSO and the absorbance was measured at 540 nm using a microplate reader.
The 3T3-L1 adipocyte (ATCC) was cultured in Dulbecco's modified eagle medium (DMEM) (Invitrogen) supplemented with 10% fetal bovine serum, 100 units/ml penicillin and 100 μg/ml streptomycin under the condition of 5% CO2 and 37° C. […] Subsequently, the medium was replaced with DMEM medium containing 1 μg/ml insulin (Sigma), and the culture medium was maintained and changed every 2 to 3 days until the degree of differentiation reaches maximum. If it took more than 7 days, the cells were kept in normal DMEM culture medium until starting the tests. […] After the cells were incubated for 3 hours under the condition of 37° C. and 5% CO2, the MTT solution was removed.

sole of the rat paws = assay: Measurement of skin lesion (erythema) on rat paw; type: in vivo, Sprague Dawley rats; conditions: for skin lesion (erythema) in words: 2 hours after administration;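 for grade of skin lesion (erythema), 1 hour after administration: grades − to ++++ mean no to extremely severe erythema versus before injection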;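 for grade of skin lesion (erythema), 2 hours after administration: grades − to ++++ mean no to extremely severe erythema versus before injection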;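 for grade of skin lesion (erythema), Immediately after administration: grades − to ++++ mean no to extremely severe erythema versus before injection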
Protocol: as §1
The grades of skin lesion were evaluated as 0 to 4 grades.

[2] = tested on: tissues of the injected area (rat paw); assay: H&E staining histological test (inflammation) of injected rat paw; type: in vivo, Sprague Dawley rats; conditions: for Inflammation (H&E), BA % (w/v) 1.0: bile acid single composition 1.0% (w/v); for degree of inflammation (H&E) in words: rats sacrificed at 3 hours, injected paw
Protocol: The tissues of the injected area were dissected, fixed with 10% formalin, and then the specimen was prepared and images were captured using an optical microscope. The degree of inflammation was evaluated as follows.

inguinal fat pad = conditions: 0.2 ml s.c. once into inguinal fat pad, 8 days post-injection
[3] = bile acid single composition 1.0% (w/v)
[4] = bile acid single composition 2.5% (w/v)
[5] = bile acid single composition 5.0% (w/v)
[6] = bile acid single composition 7.5% (w/v)

| SMILES | degree of edema, 1 hour after administration (paw of the rats; [3]) | degree of edema, 2 hours after administration (paw of the rats; [3]) | degree of edema, Immediately after administration (paw of the rats; [3]) | degree of edema, 1 hour after administration (paw of the rats; [4]) | degree of edema, 2 hours after administration (paw of the rats; [4]) | degree of edema, Immediately after administration (paw of the rats; [4]) | degree of edema, 1 hour after administration (paw of the rats; [5]) | degree of edema, 2 hours after administration (paw of the rats; [5]) | degree of edema, Immediately after administration (paw of the rats; [5]) | degree of edema, 1 hour after administration (paw of the rats; [6]) | degree of edema, 2 hours after administration (paw of the rats; [6]) | degree of edema, Immediately after administration (paw of the rats; [6]) | bile acid/PPC molar ratio below which a substantially stable formulation did not occur [1] | bile acid concentration at which stable injectable preparations can be made [1] | grade of skin lesion (erythema), 1 hour after administration (sole of the rat paws; [3]) | grade of skin lesion (erythema), 2 hours after administration (sole of the rat paws; [3]) | grade of skin lesion (erythema), Immediately after administration (sole of the rat paws; [3]) | grade of skin lesion (erythema), 1 hour after administration (sole of the rat paws; [4]) | grade of skin lesion (erythema), 2 hours after administration (sole of the rat paws; [4]) | grade of skin lesion (erythema), Immediately after administration (sole of the rat paws; [4]) | also measured |
| --- | --- | --- | --- | --- | --- | --- | --- | --- | --- | --- | --- | --- | --- | --- | --- | --- | --- | --- | --- | --- | --- |
| C[C@H](CCC(=O)NCCS(=O)(=O)O)[C@H]1CC[C@H]2[C@@H]3[C@@H](O)C[C@@H]4C[C@H](O)CC[C@]4(C)[C@H]3CC[C@]12C [TUDCA, 2-[[(4R)-4-[(3R,5S,7S,8R,9S,10S,13R,14S,17R)-3,7-dihydroxy-10,13-dimethyl-2,3,4,5,6,7,8,9,11,12,14,15,16,17-tetradecahydro-1H-cyclopenta[a]phenanthren-17-yl]pentanoyl]amino]ethanesulfonic acid] | + (mild edema [+, (the degree of swelling was 1-20% compared to before the injection)]) | + (mild edema [+, (the degree of swelling was 1-20% compared to before the injection)]) | ++ (moderate edema [++, (the degree of swelling was 20-40% compared to before the injection)]) | + (mild edema [+, (the degree of swelling was 1-20% compared to before the injection)]) | + (mild edema [+, (the degree of swelling was 1-20% compared to before the injection)]) | ++ (moderate edema [++, (the degree of swelling was 20-40% compared to before the injection)]) | + (mild edema [+, (the degree of swelling was 1-20% compared to before the injection)]) | ++ (moderate edema [++, (the degree of swelling was 20-40% compared to before the injection)]) | ++ (moderate edema [++, (the degree of swelling was 20-40% compared to before the injection)]) | ++ (moderate edema [++, (the degree of swelling was 20-40% compared to before the injection)]) | ++ (moderate edema [++, (the degree of swelling was 20-40% compared to before the injection)]) | ++ (moderate edema [++, (the degree of swelling was 20-40% compared to before the injection)]) | less than 1.29 | ≥ 4.0% | − | − | − | − | − | − | degree of edema in words (paw of the rats; listed as TUCA 1.0%): Mild; degree of edema in words (paw of the rats; listed as TUCA 2.5%): Mild; degree of edema in words (paw of the rats; listed as TUDCA 1.0%): mild; degree of edema in words (paw of the rats; listed as TUDCA 2.5%): mild; degree of edema in words (paw of the rats; listed as TUDCA 5.0%): moderate; degree of edema in words (paw of the rats; listed as TUDCA 7.5%): Moderate; adipocyte viability / adipocyte-reducing activity (3T3-L1 adipocytes): inhibits the adipocyte apoptosis and degradation; grade of skin lesion (erythema), 1 hour after administration (sole of the rat paws; [5]): −; grade of skin lesion (erythema), 2 hours after administration (sole of the rat paws; [5]): −; grade of skin lesion (erythema), Immediately after administration (sole of the rat paws; [5]): −; grade of skin lesion (erythema), 1 hour after administration (sole of the rat paws; [6]): −; grade of skin lesion (erythema), 2 hours after administration (sole of the rat paws; [6]): −; grade of skin lesion (erythema), Immediately after administration (sole of the rat paws; [6]): −; Inflammation (H&E), BA % (w/v) 1.0 ([2]; injected rat paw): −; Inflammation (H&E), BA % (w/v) 2.5 ([2]; bile acid single composition 2.5% (w/v), injected rat paw): −; Inflammation (H&E), BA % (w/v) 5.0 ([2]; bile acid single composition 5.0% (w/v), injected rat paw): −; Inflammation (H&E), BA % (w/v) 7.5 ([2]; bile acid single composition 7.5% (w/v), injected rat paw): +; degree of inflammation (H&E) in words [2]: Mild |
| CC(C)NCC(O)c1ccc(O)c(O)c1 (stereo not shown) [Isuprel] |  |  |  |  |  |  |  |  |  |  |  |  |  |  |  |  |  |  |  |  | histological change of adipocytes in fat tissue (inguinal fat pad): size of the adipocytes was reduced |
| C[C@H](CCC(=O)NCCS(=O)(=O)O)[C@H]1CC[C@H]2C3CC[C@@H]4C[C@H](O)CC[C@]4(C)[C@H]3C[C@H](O)[C@]12C (stereo partly drawn) [TDCA, 2-[[(4R)-4-[(3R,5R,9S,10S,12S,13R,14S,17R)-3,12-dihydroxy-10,13-dimethyl-2,3,4,5,6,7,8,9,11,12,14,15,16,17-tetradecahydro-1H-cyclopenta[a]phenanthren-17-yl]pentanoyl]amino]ethanesulfonic acid] | +++ (severe edema [+++, (the degree of swelling was 40-60% compared to before the injection)]) | +++ (severe edema [+++, (the degree of swelling was 40-60% compared to before the injection)]) | ++ (moderate edema [++, (the degree of swelling was 20-40% compared to before the injection)]) | +++ (severe edema [+++, (the degree of swelling was 40-60% compared to before the injection)]) | +++ (severe edema [+++, (the degree of swelling was 40-60% compared to before the injection)]) | ++ (moderate edema [++, (the degree of swelling was 20-40% compared to before the injection)]) | ++++ (extremely severe edema [++++, (the degree of swelling was 60% or more compared to before the injection)]) | ++++ (extremely severe edema [++++, (the degree of swelling was 60% or more compared to before the injection)]) | ++ (moderate edema [++, (the degree of swelling was 20-40% compared to before the injection)]) | ++++ (extremely severe edema [++++, (the degree of swelling was 60% or more compared to before the injection)]) | ++++ (extremely severe edema [++++, (the degree of swelling was 60% or more compared to before the injection)]) | ++ (moderate edema [++, (the degree of swelling was 20-40% compared to before the injection)]) | less than 0.74 | ≥ 2.3% | +++ | ++ | + | +++ | +++ | ++ | degree of edema in words (paw of the rats; listed as TDCA 2.5%): “severe” and “extremely severe”; skin lesion (erythema) in words (sole of the rat paws; listed as TDCA 1.0%): Moderate; skin lesion (erythema) in words (sole of the rat paws; listed as TDCA 2.5%): “severe” and “extremely severe”; grade of skin lesion (erythema), 1 hour after administration (sole of the rat paws; [5]): ++++; grade of skin lesion (erythema), 2 hours after administration (sole of the rat paws; [5]): ++++; grade of skin lesion (erythema), Immediately after administration (sole of the rat paws; [5]): ++; grade of skin lesion (erythema), 1 hour after administration (sole of the rat paws; [6]): ++++; grade of skin lesion (erythema), 2 hours after administration (sole of the rat paws; [6]): ++++; grade of skin lesion (erythema), Immediately after administration (sole of the rat paws; [6]): ++; Inflammation (H&E), BA % (w/v) 1.0 ([2]; injected rat paw): ++; degree of inflammation (H&E) in words [2]: Moderate |
